Assay [1] deals with model of sarcopenia caused by aging. Put plainly: Aging animal model, 22-month-old mice (Experimental Example 2). The format is in vivo, C57BL/6J mice. An excerpt: For an experimental group in the present invention, oxiracetam having a structure of Formula 1 was purchased from Tokyo Chemical Industry (Japan; Product No. 00398, CAS RN:62613-82-5, purity: 96%) and used.
As a model of sarcopenia caused by aging, 22-month-old male C57BL/6J mice were used. Until the day of the experiment, general feed (EEGJ30060: Cargill Agri Purina, Seongnam, Korea) and water were sufficiently supplied to the experimental animals, and the animals were acclimated for 1 week under an environment of a temperature of 23±2° C., a humidity of 55±10%, and a light-dark cycle of 12 hours-12 hours and used in the experiment.
The animals were randomly divided into groups of 10 animals, such as a control (vehicle, n=10), and 30, 100, and 300 mg/kg/day oxiracetam-administered groups (n=10 per concentration). To the oxiracetam-administered group, oxiracetam was orally administered using a Zonde needle for 90 days once a day at a dose of 30, 100, or 300 mg/kg/day. During the same period, no drug was administered to the control group, and 100 μL of normal saline was orally administered at a time.
To measure grip strength, a grip strength test was performed. The maximum force presented when the forelimbs of an animal model of each group could no longer hold the rod by pulling the tail horizontally while holding the tail of the animal model and holding the rod of a device with both front paws was considered to be grip strength (N). The grip strength was measured once every 3 days, and after repeating five measurements at one time, the average value was shown. Grip strength adaptation training was performed at least three times before drug administration.
The lean body mass of the gastrocnemius muscle (GS) and the lean body mass of the tibialis anterior (TA) for each group was measured every 7 days. Specifically, animal models of each group were anesthetized using 3% isoflurane, fixed to a photographing bed and then photographed. During photographing, the respiratory rates and body temperatures of the animal models were measured with an animal monitoring system (SA Instruments, USA).
The whole body of the animal model was photographed through dual energy X-ray absorptiometry (DEXA) using iNSiGHT VET DXA (Osteosys, KR), and the lean body mass of each of the gastrocnemius muscle (GS) and the tibialis anterior (TA) was measured and calculated from the two-dimensional images of the gastrocnemius muscle (GS) and the tibialis anterior (TA) by a program using the region of interest (ROI).
At 90 days after the start of the experiment, an exercise stress test was performed. First, the experimental animals in each group were acclimatized to a treadmill machine twice before measurement (1st round: inclination 10°, 10 minutes at 5 m/min and 10 minutes at 10 m/min; 2nd round: inclination 10°, 5 minutes at 5 m/min and 15 munutes at 10 m/min). On the day of the experiment, the experimental animals were allowed to run for 20 minutes at an initial speed of 10 m/min at an inclination of 10°, and then the speed was increased by 2 m/min every 2 minutes, and then the running distance and time were measured with the end point when the experimental animal stayed for 10 seconds without running.
Statistical processing was performed using GraphPad Prism (GraphPad Software Inc., San Diego, CA, USA). The results of each repeated experiment were expressed as mean±standard error of mean, and analyzed using the analysis of variance (Tukey's test), and statistical significance was acknowledged when the P-value was 0.05 or less.

The test system of assay [2] is animal model in which muscular atrophy was induced by dexamethasone. Put plainly: Comparison with racetam-based drugs in dexamethasone muscular atrophy model (Experimental Example 4). The format is in vivo, ICR mice. From the text: For an experimental group in the present invention, oxiracetam having a structure of Formula 1 was purchased from Tokyo Chemical Industry (Japan; Product No. 00398, CAS RN:62613-82-5, purity: 96%) and used. Other racetam drugs, such as aniracetam and nepiracetam, were purchased from Bide Pharmatech (W-44; China, Product Nos. BD114391, BD140804, purity: 96%), piracetam, phenylpiracetam, corulacetam and pramiracetam were purchased from Tokyo Chemical Industry (Japan, Product Nos. P2880, P2604, C3689, P2061, purity: 96%), levetiracetam was purchased from Roeun China, Product No. R025860, purity: 96%), brivaracetam was purchased from R&D Systems (USA, Product No. 7271, purity: 96%), rolziracetam and faroracetam were purchased from Targetmol (USA, Product Nos. T16783, T19624, purity: 96%), and rolipram was purchased from Aladdin (MAT; China, Product No. R129674, purity: 96%).
As experimental animals, 7-week-old male ICR mice were purchased and used. […]
To measure grip strength, a grip strength test was performed. […] After measurement before drug administration (day 0) and on day 20 after drug administration began, grip strength variation (%) after drug administration began (day 20) with respect to that before drug administration (day 0) was calculated.
The lean body mass of the gastrocnemius muscle (GS) and the lean body mass of the tibialis anterior (TA) for each group were measured every 7 days. […] During photographing, the respiratory rates and body temperatures of the animal models were measured with an animal monitoring system (SA Instruments, USA).
The whole body of the animal model was photographed through dual energy X-ray absorptiometry (DEXA) using iNSiGHT VET DXA (Osteosys, KR), and the lean body mass of each of the gastrocnemius muscle (GS) and the tibialis anterior (TA) was measured and calculated from the two-dimensional images of the gastrocnemius muscle (GS) and the tibialis anterior (TA) by a program using the region of interest (ROI). […]

Where [3] appears, read: Oxi 30, Oxi 100, Oxi 300 mg/kg/day oral, DEXA every 7 days, compared to control.
The mark [4] stands for this setting: drug 30 mg/kg/day (piracetam 100 mg/kg/day) oral 21 days + dexamethasone, DEXA every 7 days.

The source of these data is patent US20240050406A1, “COMPOSITION COMPRISING OXIRACETAM FOR PREVENTING OR TREATING MUSCULAR DISEASE” (KSB TUGEN INC., priority 2021, published 2024).

In the case of `NC(=O)CN1CC(O)CC1=O` (racemic) [oxiracetam, (RS)-2-(4-hydroxy-2-oxopyrrolidin-1-yl)acetamide], the “lean body mass of the gastrocnemius muscle (GS)” value in assay [1] (setting [3]) is listed as “increased rather than decreased”; in assay [1] (Oxi 300 group (300 mg/kg/day), from week 7), “significantly increased”; in assay [2] (setting [4]) it was “recover the lean body mass of the gastrocnemius muscle (GS) to the control (vehicle) level”. Besides, the “lean body mass of the tibialis anterior (TA)” value is reported as “increased rather than decreased” in assay [1] (setting [3]) and “recover the lean body mass of the tibialis anterior (TA) to the control (vehicle) level” in assay [2] (setting [4]). Besides, the “physical performance capacity (athletic ability), treadmill running distance and time” value in assay [1] (Oxi 30, Oxi 100, Oxi 300, day 90, compared to control) was “increased rather than decreased”; in assay [1] (Oxi 300 group (300 mg/kg/day), day 90), “significantly increased”. In addition, the “change in grip strength” value is “suppressed and rather increased” in assay [1] (oxiracetam 30, 100 and 300 mg/kg/day oral 90 days, versus control (vehicle)); “recovers to greater than the control” in assay [2] (drug 30 mg/kg/day (piracetam 100 mg/kg/day) oral 21 days + dexamethasone 10 mg/kg i.p. day 7-21, day 20 vs day 0).
